The source of these data is patent US5929037A, “Modified α-D-Glc.rho.-(1-2)-α-D-Glc.rho.-(1-3)-α-D-Glc.rho.-ana logues” (Alberta Research Council, priority 1995, dated 1999).

For one assay, the system named is glucosidase. The conditions noted are these: cited from earlier work.
In another assay the target is T1, glucosidase I (Bos taurus, UniProt A0A3Q1M9D9).
T1 construct: Glucosidase I was solubilized from calf pancreas microsomes; from tissue
T1 sequence (A0A3Q1M9D9 1-839): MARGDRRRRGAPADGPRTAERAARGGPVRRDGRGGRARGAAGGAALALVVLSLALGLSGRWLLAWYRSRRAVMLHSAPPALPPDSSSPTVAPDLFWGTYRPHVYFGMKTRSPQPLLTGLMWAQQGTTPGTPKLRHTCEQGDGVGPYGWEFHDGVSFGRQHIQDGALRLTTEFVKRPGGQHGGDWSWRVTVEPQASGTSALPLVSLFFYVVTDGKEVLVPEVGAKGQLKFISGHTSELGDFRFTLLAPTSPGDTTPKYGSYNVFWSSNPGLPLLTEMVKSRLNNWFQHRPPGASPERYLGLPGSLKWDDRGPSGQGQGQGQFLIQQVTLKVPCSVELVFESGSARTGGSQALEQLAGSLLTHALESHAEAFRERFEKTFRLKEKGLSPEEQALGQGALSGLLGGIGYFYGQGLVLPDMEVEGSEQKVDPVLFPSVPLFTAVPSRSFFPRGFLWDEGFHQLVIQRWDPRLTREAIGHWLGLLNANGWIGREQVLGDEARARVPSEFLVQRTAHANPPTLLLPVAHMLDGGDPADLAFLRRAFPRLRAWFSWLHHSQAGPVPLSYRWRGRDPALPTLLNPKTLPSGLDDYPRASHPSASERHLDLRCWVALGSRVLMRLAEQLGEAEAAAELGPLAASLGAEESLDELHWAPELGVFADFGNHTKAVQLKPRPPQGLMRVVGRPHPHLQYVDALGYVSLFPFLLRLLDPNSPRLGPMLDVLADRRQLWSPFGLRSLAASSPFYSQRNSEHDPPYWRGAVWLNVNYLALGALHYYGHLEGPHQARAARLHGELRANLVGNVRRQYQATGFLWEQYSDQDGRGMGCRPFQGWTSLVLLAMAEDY
As to the kind of experiment: Assay for glucosidase I activity (14C-Glc3Man9GlcNAc2 substrate, ConA-Sepharose, scintillation counting). As to conditions: affinity purified glucosidase I from calf pancreas microsomes; for inhibition at 1000 µM: at 1 mM concentration, read-out: inhibition of glycosidase I activity. Type of assay: biochemical. On the procedure: Some of the compounds which are modified analogues of the trisaccharides corresponding to the end tail of precursor oligosaccharides Glc3 Man9 GlcNAc2 -PP-Dol, were evaluated as inhibitors of glucosidase I activity. Glucosidase I was purified by a literature procedure as follows. To prepare an affinity matrix, carboxypentyl-deoxynojirimycin was coupled with Affigel 102 according to Shailubhai et al^19. Glucosidase I was solubilized from calf pancreas microsomes, and purified from glucosidase II activity by affinity chromatography according to the same authors.
^14 C-labelled Glc3 Man9 GlcNAc2 -PP-Dol was prepared by the incubation of UDP-[^14 C]Glc with calf pancreas microsomes as described by Herscovien et al^40. Glc3 Man9 GlcNAc2 was released by mild acid hydrolysis and purified by BioGel P4 chromatography.
Affinity purified glucosidase I was assayed as described by Saunier et al.^41 by adsorption of undigested substrate and oligosaccharide product to ConA-Sepharose and scintillation counting of [^14 C]Glc in the column eluent. Oligosaccharides as potential inhibitors were evaluated using castanospermine as a baseline inhibitor.

As to `OC[C@H]1NC[C@H](O)[C@@H](O)[C@@H]1O` [deoxynojirimycin], the “concentration required to induce the inhibitory effect in vitro” value with glucosidase was “at least 1 mmol/l”.
`COC(=O)CCCCCCCCO[C@H]1O[C@H](CO)[C@@H](O)[C@H](O[C@H]2O[C@H](CO)[C@@H](O)[C@H](O)[C@H]2O[C@H]2O[C@H](C)[C@@H](O)[C@H](O)[C@H]2O)[C@H]1O` [Compound 49, 8-Methoxycarbonyl 3-O-[2-O-(6deoxy-α-D-glucopyranosyl)-α-D-glucopyranosyl]-α-D-glucopyranoside]: on glucosidase I, the “glucosidase I inhibitory activity (result in words)” value was “completely eliminated”.
As for `COC(=O)CCCCCCCCO[C@H]1O[C@H](CO)[C@@H](O)[C@H](O[C@H]2O[C@H](CO)[C@@H](O)[C@H](O)[C@H]2O[C@H]2O[C@H](CO)[C@@H](O)[C@H](O)[C@H]2O)[C@H]1O` [Compound 40, 8-methoxycarbonyloctyl 3-O-[2-O-(α-D-glucopyranosyl)-α-D-glucopyranosyl]-α-D-glucopyranoside], the inhibition at 1000 µM on glucosidase I was found to be 100%.
Still for that read-out and setting: the same measure for `COC(=O)CCCCCCCCO[C@H]1O[C@H](CO)[C@@H](O)[C@H](O[C@H]2O[C@H](CO)[C@@H](O)[C@H](O)[C@H]2O[C@H]2O[C@H](CO)[C@@H](O)C[C@H]2O)[C@H]1O` [Compound 45, 8-methoxycarbonyloctyl 3-O-[2-O-(3-deoxy-α-D-glucopyranosyl)-α-D-glucopyranosyl]-α-D-glucopyranoside]: 50%.
